Values of other authors in US20180327354A1, “Unnatural Analogues of Calcitriol and Uses Thereof” (Vidasym, Inc., priority 2009, published 2018).
Like-named read-outs stand apart in the source and are kept apart here.

Experiments:
[1] = clinical studies, Martin et al., 2001; cited from earlier work
uremic rats = conditions: cited from earlier work
[2] = Slatopolsky et al., 1998, converted from ng/rat

For `C[C@H](/C=C/[C@H](C)C(C)(C)O)[C@H]1CC[C@H]2/C(=C/C=C3C[C@@H](O)C[C@H](O)C3)CCC[C@]12C` [paricalcitol], the “fold less potent in raising serum calcium than calcitriol” value [1] is listed as 10 fold, the “fold less potent in suppressing PTH than calcitriol” value [1] is listed as “about 3 fold” and the “dose at which compound raises serum Ca” value (uremic rats; Noonan et al., 2008) is listed as 0.083 µg/kg. For the same compound, the “dose at which compound starts to suppress serum PTH” value (shortened to “dose at which compound starts”) (uremic rats; Noonan et al., 2008) was 0.083 µg/kg, the “dose at which compound raises serum Ca” value (uremic rats; [2]) was ~0.0625 µg/kg and the “dose at which compound starts” value (uremic rats; [2]) was ~0.02 µg/kg. For the same compound, the “dose at which compound raises serum Ca” value (uremic rats; Slatopolsky et al., 1998) was 25 ng/rat and the “dose at which compound starts” value (uremic rats; Slatopolsky et al., 1998) was 8 ng/rat.
